Data reported in patent US12247973B2, “Plasma membrane citrate transporter for use in the diagnosis and treatment of cancer” (Universitätsklinikum Regensburg, priority 2014, dated 2025).

Legend:
[1] = test system: human prostate cancer PC-3M cells; assay: Survival of PC-3M cells under stress conditions, MTT assay; type: cell-based; settings: serum-free media with 0.5 g/L glucose
Experimental: FIG. 16. Metastatic human prostate cancer PC-3M cells were grown in RPMI media supplemented with 0.5 g/L glucose and glutamine. Their survival rate was measured after 48 h and 72 h using an MTT assay. The control depicts survival of the cells with no extracellular citrate or glutamate.
4. Effect of gluconate on the survival of human prostate cancer PC-3M cells (16)

PC-3M cells [2] = assay: Flow cytometry-based cell division (cell cycle) study; design: species or system human; settings: PC-3M cells cultured with supplemented citrate, normoxic
Experimental: (§1) FIG. 3. Glycolytic activity and amino acid release. (A) Amount of glucose consumed and lactate released by PC-3M cells grown for 24 h with or without 200 μM citrate. (**P<0.01; n=5). (B) Concentrations of glycine, alanine and proline in the supernatants of PC-3M cells grown for 72 h with or without 200 μM citrate. (*P<0.05, **P<0.01; n=5). (C) Influence of extracellular citrate on the intracellular ratio of 13C-labeled to unlabelled free amino acids. PC-3M cells were incubated for 72h in media supplemented with [U-^13C]glucose with or without 200 μM unlabelled citrate, the ratio of ^13C incorporation into amino acids is shown. (*P<0.05, ***P<0.005; n=5). (D) Cell division in the presence or absence of extracellular citrate under normoxic conditions determined by flow cytometry. (*P<0.05, **P<0.01; n=6).
An increase in the synthesis of amino acids in the presence of extracellular citrate prompted cell division testing. […] Therefore, metabolic changes induced by extracellular citrate affect metabolism to an extent that impacts cellular processes such as cell division.
Studies were performed as before^28. […] ROS production was detected with dihydrorhodamine 123 (Molecular Probes, Darmstadt, Germany). […] At least 10,000 live cells were measured per sample. Dead cells were detected using the Aqua Live/Dead cell kit (Molecular Probes).

normal PNT2-C2 cells = assay: ROS synthesis by flow cytometry in PNT2-C2 cells; type: cell-based, human; settings: extracellular citrate
Experimental: FIG. 2. Impact of extracellular citrate on Krebs cycle activity. PC-3M cells were incubated for 72 h with 25 mM [U-13C]glucose with or without the addition of 200 μM unlabelled citrate. (A) Differences in the ratio of uniform ^13C incorporation into fully labelled Krebs cycle intermediates. (*P<0.05, ***P<0.005; n=5). (B) Differences in ROS synthesis determined by flow cytometry for PC-3M (left) and PNT2-C2 (right) cells. Cells were incubated in media containing FCS, dialysed FCS+200 μM citrate, or dialysed serum only. Shown are geometric means±SD. (*P<0.05; n=6-9). […] Changes in mCiC in mitochondrial protein derived from PNT2-C2 cells was also determined under normoxic conditions (right). […]
Changes in Krebs cycle activity were also determined by measuring the absolute amounts determined as a normalized response of the studied substrates (unlabelled and total ^13C depicting all substrates with any number of labelled carbons) in the presence or absence of unlabelled extracellular citrate (FIG. 7). […] Using flow cytometry the inventors also determined that ROS levels in PC-3M cells grown with extracellular citrate were decreases by about 20%, compared to cells grown in citrate-depleted dialysed serum (FIG. 2B); use of normal non-dialysed serum also reduces ROS levels. […]
Studies were performed as before^28. […] ROS production was detected with dihydrorhodamine 123 (Molecular Probes, Darmstadt, Germany). […]

PC-3M cells [3] = assay: Glucose uptake and lactate release in media of PC-3M cells; type: cell-based, human; settings: 200 μM citrate, 24 h
Experimental: as §1
To assess glycolysis the inventors measured (unlabelled) glucose uptake and lactate release in the media from PC-3M cells incubated±200 μM citrate for 24 h. […] This effect is most likely related to increased conversion of pyruvate to lactate because of decreased mitochondrial citrate synthesis.
Metabolites were extracted with 80% methanol and measured by HPLC-ESI-MS/MS on an AB SCI EX (Framingham, MA, USA) Q TRAP™ 4000 system. […] Lactate and glucose in the media were measured as previously described^27.

pmCiC = target: T1, pmCiC (Homo sapiens, UniProt P53007); assay: pmCiC expressed in oocytes, two electrodes voltage clamp, citrate-induced current; type: cell-based
T1 construct: expressed in transfected cells
Experimental: FIG. 13. Oocytes were injected with either pmCiC cDNA (A) or water (B).
1. pmCiC expression in oocytes—two electrodes voltage clamp (FIG. 13)
We have expressed pmCiC in oocytes and induced citrate inward current by introducing citrate into extracellular media. […] This reduction was irreversible, as subsequent application of citrate after gluconate removal from the media was not able to restore the primary response.

[4] = test system: human prostate cancer PC-3M cells; assay: Patch clamp, citrate-induced current in PC-3M cells; type: cell-based
Experimental: (§2) FIG. 14. Patch clamp recordings were performed on PC-3M (A) and PNT2-C2 (B) cells. […] Importantly, reduction in citrate-induced current in the presence of gluconate was irreversible. […] The effect of reduced citrate-induced current was greater in the case of PC-3M cells versus PNT2-C2 cells.
(§3) 2. Patch clamp on human prostate cancer PC-3M and benign PNT2-C2 cells (FIG. 14)
(§4) Extracellular application of citrate induced inward current in both cell lines as described earlier. […] As in the case of oocytes, gluconate inhibition of citrate-induced current was irreversible. Repeated application of citrate on PC-3M cells has been previously shown not to cause any reduction in citrate current (Mycielska et al., 2005).

benign PNT2-C2 cells = assay: Patch clamp, citrate-induced current in PNT2-C2 cells; type: cell-based, human; settings: 10 mM gluconate, 10 mM citrate
Experimental: as §2, §3, §4

pmCiC mRNA = assay: RealTime PCR, pmCiC mRNA expression in PC-3M cells; type: cell-based, human; settings: media with citrate plus 5 mM gluconate vs citrate only
Experimental: (§5) FIG. 15. Metastatic human prostate cancer PC-3M cells were grown with extracellular citrate in the presence or absence of gluconate (5 mM). RealTime PCR was performed to assess changes to the mRNA expression level of pmCiC and mCiC.
(§6) 3. Effects of extracellular gluconate on pmCiC mRNA expression (FIG. 15)
(§7) We have studied the effect of gluconate in the extracellular media supplemented with citrate on the expression changes of pmCiC and mCiC as compared to the control conditions where the cells were incubated with extracellular citrate only. […] On the other hand, there was a significant mCiC mRNA increase, which would indicate increased mitochondrial activity to maintain intracellular citrate level.

mCiC mRNA = assay: RealTime PCR, mCiC mRNA expression in PC-3M cells; type: cell-based, human; settings: media with citrate plus 5 mM gluconate vs citrate only
Experimental: as §5, §6, §7

T1 sequence (P53007 with tags, fused parts or gaps limits assumed): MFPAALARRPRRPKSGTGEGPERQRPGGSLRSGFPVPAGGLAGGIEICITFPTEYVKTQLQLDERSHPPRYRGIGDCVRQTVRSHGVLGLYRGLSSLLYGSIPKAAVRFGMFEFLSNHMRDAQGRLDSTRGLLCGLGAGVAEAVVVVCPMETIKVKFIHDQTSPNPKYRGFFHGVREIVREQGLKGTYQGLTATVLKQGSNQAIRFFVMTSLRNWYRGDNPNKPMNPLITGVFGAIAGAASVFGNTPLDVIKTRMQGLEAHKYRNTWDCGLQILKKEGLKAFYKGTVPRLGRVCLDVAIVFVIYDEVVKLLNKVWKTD

Compound	survival of cancer cells under stress conditions with extracellular citrate ([1]; 200 μM citrate)	cell cycle phase distribution (PC-3M cells [2])	ROS synthesis (normal PNT2-C2 cells)	lactate production (absolute amount of lactate per media volume) (PC-3M cells [3])	reversibility of the reduction of citrate-induced current (pmCiC; citrate applied again after gluconate removal from the media)	citrate-induced current in the presence of gluconate (pmCiC; oocytes injected with pmCiC cDNA, gluconate applied extracellularly)	reversibility of gluconate inhibition of citrate-induced current ([4]; PC-3M cells, 10 mM gluconate)	citrate-induced current in the presence of gluconate ([4]; PC-3M cells, 10 mM gluconate, 10 mM citrate)	effect of repeated application of gluconate on citrate-induced current ([4]; repeated application)	citrate-induced current in the presence of gluconate (benign PNT2-C2 cells)	pmCiC mRNA expression (pmCiC mRNA)	mCiC mRNA expression (mCiC mRNA)	survival of cells in the presence of extracellular citrate and gluconate ([1]; 200 μM citrate, 48 h and 72 h)	cell survival with gluconate in the absence of extracellular citrate ([1]; no citrate)
O=C(O)CC(O)(CC(=O)O)C(=O)O [citrate]	increases survival	sharp increase in the G2/M phase	did not affect ROS synthesis	unaffected										
O=C(O)[C@H](O)[C@@H](O)[C@H](O)[C@H](O)CO [gluconate]					irreversible	significantly decreased	irreversible	decreased	further citrate-induced current reduction	decreased	significantly increased	significantly increased	protective effect of extracellular citrate is abolished	no effect on cell survival
